Measured values: ChEMBL document CHEMBL1201862, “PubChem BioAssay data set” (2004)
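In this assay, cells in 96-well plates receive the compound at five concentrations for 48 hours. Endpoints are linearly interpolated between the surrounding concentrations. At the GI50, growth is halved.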 Active and inactive are the calls of the source. Rule as the data show it: active = GI50 up to about 1.1 µM and inactive = higher.

Experiments:
Assay in all cases: DTP human tumour cell line panel, 48 h
786-0 = test system: 786-0
A498 = test system: A498
ACHN = test system: ACHN
CAKI-1 = test system: CAKI-1
HCT-116 = test system: HCT-116
HOP-62 = test system: HOP-62
HT-29 = test system: HT-29
IGROV-1 = test system: IGROV-1
K562 = test system: K562
M14 = test system: M14
MDA-N = test system: MDA-N
NCI-H23 = test system: NCI-H23
OVCAR-3 = test system: OVCAR-3
SF-295 = test system: SF-295
SK-MEL-28 = test system: SK-MEL-28
SNB-19 = test system: SNB-19
TK-10 = test system: TK-10
HCC 2998 = test system: HCC 2998
HL-60 = test system: HL-60

SMILES	GI50 (786-0)	GI50 (A498)	GI50 (ACHN)	GI50 (CAKI-1)	GI50 (HCT-116)	GI50 (HOP-62)	GI50 (HT-29)	GI50 (IGROV-1)	GI50 (K562)	GI50 (M14)	GI50 (MDA-N)	GI50 (NCI-H23)	GI50 (OVCAR-3)	GI50 (SF-295)	GI50 (SK-MEL-28)	GI50 (SNB-19)	GI50 (TK-10)	GI50 (HCC 2998)	GI50 (HL-60)
COc1ccc2oc(=N)c(C(=O)Nc3ccccc3)cc2c1	3.09 µM (inactive)	17.1 µM (inactive)	13.7 µM (inactive)	5.61 µM (inactive)	25.7 µM (inactive)	15.8 µM (inactive)	64.6 µM (inactive)	17.9 µM (inactive)	1.26 µM (inactive)	38.1 µM (inactive)	18.5 µM (inactive)	15.2 µM (inactive)	30.5 µM (inactive)	16 µM (inactive)	30 µM (inactive)	25.2 µM (inactive)	57.5 µM (inactive)		
Cc1nn(C(=O)c2ccc(Cl)cc2)c2c1C(c1ccc(O)cc1)SC(=N)N2 (stereo not given)	> 10 µM (inactive)		> 10 µM (inactive)	> 10 µM (inactive)	> 10 µM (inactive)	> 10 µM (inactive)	> 10 µM (inactive)	> 10 µM (inactive)	> 10 µM (inactive)	> 10 µM (inactive)	> 10 µM (inactive)	> 10 µM (inactive)	> 10 µM (inactive)	> 10 µM (inactive)	> 10 µM (inactive)	> 10 µM (inactive)	> 10 µM (inactive)	> 10 µM (inactive)	> 10 µM (inactive)
O=C(c1cc2c(C(F)(F)F)onc2c2ccccc12)C(F)(F)F	1.93 µM (inactive)	12.7 µM (inactive)	2.89 µM (inactive)	2.78 µM (inactive)	0.0452 µM (active)	2.44 µM (inactive)	3.7 µM (inactive)	2.74 µM (inactive)	0.855 µM (active)	3.94 µM (inactive)		0.929 µM (active)	2.22 µM (inactive)	2.58 µM (inactive)	3.44 µM (inactive)	3.8 µM (inactive)	7.4 µM (inactive)	4.55 µM (inactive)	0.984 µM (active)
[N-]=[N+]=NI1OC(=O)c2ccccc21	> 100 µM (inactive)	> 100 µM (inactive)	65.9 µM (inactive)	23.8 µM (inactive)	> 100 µM (inactive)	> 100 µM (inactive)	> 100 µM (inactive)	> 100 µM (inactive)	36.6 µM (inactive)	> 100 µM (inactive)		> 100 µM (inactive)	> 100 µM (inactive)	> 100 µM (inactive)	47.2 µM (inactive)	> 100 µM (inactive)	> 100 µM (inactive)	> 100 µM (inactive)	40.5 µM (inactive)
COc1ccc(/C=C(\C#N)c2ccccn2)cc1OC	43.9 µM (inactive)		55.8 µM (inactive)	60.7 µM (inactive)	31.7 µM (inactive)	36.7 µM (inactive)	43 µM (inactive)	51.2 µM (inactive)	85.5 µM (inactive)	> 100 µM (inactive)	42.4 µM (inactive)	43.7 µM (inactive)	86.1 µM (inactive)	26.8 µM (inactive)	38.4 µM (inactive)	39.8 µM (inactive)	63.7 µM (inactive)	65.2 µM (inactive)	27.1 µM (inactive)
CC(C)(C)OC(=O)C1C(=O)NC(=O)CC1C(COCc1ccccc1)OCc1ccccc1 (stereo not given)	24.3 µM (inactive)		23 µM (inactive)	50.4 µM (inactive)	18.6 µM (inactive)	12.1 µM (inactive)	18.7 µM (inactive)	22.9 µM (inactive)	30.1 µM (inactive)	18.9 µM (inactive)	18 µM (inactive)	32.6 µM (inactive)	21.8 µM (inactive)	20.5 µM (inactive)	18.1 µM (inactive)	40.6 µM (inactive)	35 µM (inactive)	25.7 µM (inactive)	21.4 µM (inactive)
CCCNC(=S)N/C=C1/C(=O)C=C(C)OC1=O	> 100 µM (inactive)		> 100 µM (inactive)	> 100 µM (inactive)	> 100 µM (inactive)	> 100 µM (inactive)	> 100 µM (inactive)	> 100 µM (inactive)		> 100 µM (inactive)	> 100 µM (inactive)	> 100 µM (inactive)	> 100 µM (inactive)	> 100 µM (inactive)	> 100 µM (inactive)	> 100 µM (inactive)	26.7 µM (inactive)	> 100 µM (inactive)	
Nc1ccc(S(=O)(=O)Nc2nc3ccccc3nc2N2CCCCC2)cc1	> 100 µM (inactive)		98.6 µM (inactive)	> 100 µM (inactive)	80.7 µM (inactive)	> 100 µM (inactive)	> 100 µM (inactive)	80.9 µM (inactive)	> 100 µM (inactive)	91 µM (inactive)	> 100 µM (inactive)	36.1 µM (inactive)	> 100 µM (inactive)	71.4 µM (inactive)	92.9 µM (inactive)	> 100 µM (inactive)	37.6 µM (inactive)	33.7 µM (inactive)	46.3 µM (inactive)
N#Cc1nc(CCN2C(=O)c3ccccc3C2=O)oc1N	> 100 µM (inactive)		> 100 µM (inactive)	> 100 µM (inactive)	> 100 µM (inactive)	> 100 µM (inactive)	> 100 µM (inactive)	> 100 µM (inactive)	> 100 µM (inactive)	> 100 µM (inactive)	> 100 µM (inactive)	> 100 µM (inactive)	> 100 µM (inactive)	> 100 µM (inactive)	> 100 µM (inactive)	> 100 µM (inactive)	> 100 µM (inactive)	0.0845 µM (active)	
O=c1ccc2c(Cl)sc(Cl)c2[nH]1	> 100 µM (inactive)		> 100 µM (inactive)	> 100 µM (inactive)	> 100 µM (inactive)	> 100 µM (inactive)	> 100 µM (inactive)	> 100 µM (inactive)	> 100 µM (inactive)	> 100 µM (inactive)	> 100 µM (inactive)	> 100 µM (inactive)	> 100 µM (inactive)	> 100 µM (inactive)	> 100 µM (inactive)	> 100 µM (inactive)	> 100 µM (inactive)	> 100 µM (inactive)	
O=C(CCN1CCCC1)c1ccc(Oc2ccc(F)cc2)cc1	16.6 µM (inactive)		> 100 µM (inactive)	16.3 µM (inactive)	60.8 µM (inactive)	> 100 µM (inactive)	32.5 µM (inactive)	33 µM (inactive)	42.4 µM (inactive)	31 µM (inactive)	58.3 µM (inactive)	> 100 µM (inactive)	30.9 µM (inactive)	90.2 µM (inactive)	> 100 µM (inactive)	> 100 µM (inactive)	30.1 µM (inactive)	45.1 µM (inactive)	16 µM (inactive)
C=C(CCC=C(C)C)C1CC=C(C)CC1 (stereo not given)	17.1 µM (inactive)	> 100 µM (inactive)	17.8 µM (inactive)	19.7 µM (inactive)	19.4 µM (inactive)	16.3 µM (inactive)		13.6 µM (inactive)		62.4 µM (inactive)	18.5 µM (inactive)	17.7 µM (inactive)	29.5 µM (inactive)	19.9 µM (inactive)		> 100 µM (inactive)	38.5 µM (inactive)		
CC(C)(C)NC1=NC(C(F)(F)F)(C(F)(F)F)NC(=O)N1	52.4 µM (inactive)		39.7 µM (inactive)	46.1 µM (inactive)	38.9 µM (inactive)	> 100 µM (inactive)	36.9 µM (inactive)	64.1 µM (inactive)	30.7 µM (inactive)	44.5 µM (inactive)	49.2 µM (inactive)	> 100 µM (inactive)	77.4 µM (inactive)	39.7 µM (inactive)	32.7 µM (inactive)	67.3 µM (inactive)	67.8 µM (inactive)	27.4 µM (inactive)	16.5 µM (inactive)
CN1C(=O)C2C(C1=O)C1(O)c3ccccc3C2(N)c2ccccc21 (stereo not given)	> 100 µM (inactive)	35.2 µM (inactive)	> 100 µM (inactive)	> 100 µM (inactive)	> 100 µM (inactive)	> 100 µM (inactive)	> 100 µM (inactive)	> 100 µM (inactive)	> 100 µM (inactive)	> 100 µM (inactive)		> 100 µM (inactive)	> 100 µM (inactive)	> 100 µM (inactive)	> 100 µM (inactive)	> 100 µM (inactive)	> 100 µM (inactive)	> 100 µM (inactive)	> 100 µM (inactive)
CCc1c2c(nc3ccc(O)cc13)-c1cc3c(c(=O)n1C2)COC(=O)[C@]3(O)CC [7-ETHYL-10-HYDROXYCAMPTOTHECIN]	< 0.001 µM (active)		< 0.001 µM (active)	< 0.001 µM (active)	0.402 µM (active)	< 0.001 µM (active)				< 0.001 µM (active)	0.00206 µM (active)	< 0.001 µM (active)	0.0116 µM (active)	< 0.001 µM (active)	0.0194 µM (active)	< 0.001 µM (active)	0.0933 µM (active)		< 0.001 µM (active)
CC(C)OC(=O)Nc1cccc(Cl)c1 [CHLORPROPHAM]	> 100 µM (inactive)		> 100 µM (inactive)	> 100 µM (inactive)	> 100 µM (inactive)	> 100 µM (inactive)	87.7 µM (inactive)	> 100 µM (inactive)	89.9 µM (inactive)	> 100 µM (inactive)	> 100 µM (inactive)	> 100 µM (inactive)	> 100 µM (inactive)	> 100 µM (inactive)	> 100 µM (inactive)	> 100 µM (inactive)	> 100 µM (inactive)	> 100 µM (inactive)	> 100 µM (inactive)
